Columns and labels:
[1] = test system: windgrass; assay: Test Example 5: herbicidal effect by foliage application, plastic box (Table 20, symbol L); format: in vivo, windgrass (Apera spica-venti); details: foliage application, 320 g/ha, three weeks after application
How it was run: (§1)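 Plants were sown into sterilized diluvial soil under about 1.5 cm cover and kept in a greenhouse at 25° C. to 30° C. Fourteen days on, foliage received an even spray of the diluted emulsion. Herbicidal or crop effect was judged three weeks afterwards.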

[2] = test system: persian speedwell; assay: Test Example 4: herbicidal effect by soil treatment (Table 19, symbol R); format: in vivo, Persian speedwell (Veronica persica); details: amount of applied herbicide 320 g/ha
How it was run: (§2)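 Pre-emergence style soil spray: seeds under ~1.5 cm sterilized diluvial soil received a uniform coat of emulsion diluted to the predetermined herbicide amount. Greenhouse 25–30° C; readout at week three on previously defined criteria.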

[3] = test system: barnyard grass; assay: Test Example 4: herbicidal effect by soil treatment (Table 19, symbol H); format: in vivo, barnyard grass (Echinochloa crus-galli); details: amount of applied herbicide 320 g/ha
How it was run: as §2

[4] = test system: Italian ryegrass; assay: Test Example 5: herbicidal effect by foliage application, plastic box (Table 20, symbol K); format: in vivo, Italian ryegrass (Lolium multiflorum); details: 320 g/ha; for K: Italian ryegrass, herbicidal effect grade: foliage application, three weeks after application; for herbicidal effect on K: Italian ryegrass (evaluation grade 0-5): foliage application after 14-day growth, evaluated three weeks after application
How it was run: as §1

[5] = test system: southern crabgrass; assay: Test Example 5: herbicidal effect by foliage application, plastic box (Table 20, symbol F); format: in vivo, southern crabgrass (Digitaria ciliaris); details: 320 g/ha; for F: southern crabgrass, herbicidal effect grade: foliage application, three weeks after application; for herbicidal effect on F: southern crabgrass (evaluation grade 0-5): foliage application after 14-day growth, evaluated three weeks after application
How it was run: as §1

[6] = test system: oval-leafed pondweed; assay: Test Example 1: herbicidal activity, application before weed generation under submerged conditions (Table 16, symbol C); format: in vivo, oval-leafed pondweed (Monochoria vaginalis); details: amount of applied herbicide 320 g/ha
How it was run: (§3)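 Alluvial soil was flooded to 4 cm depth, weed seeds were sown mixed and 2.5-leaf rice seedlings were transplanted. On sowing day, the compound's emulsion, diluted in water to a set dose, was applied to the water surface. Plants grew at 25–30 °C and were scored 0–5 after three weeks.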

[7] = test system: Italian ryegrass; assay: Test Example 4: herbicidal effect by soil treatment (Table 19, symbol K); format: in vivo, Italian ryegrass (Lolium multiflorum); details: amount of applied herbicide 320 g/ha
How it was run: as §2

[8] = test system: lambsquarters; assay: Test Example 4: herbicidal effect by soil treatment (Table 19, symbol O); format: in vivo, lambsquarters (Chenopodium album); details: amount of applied herbicide 320 g/ha
How it was run: as §2

[9] = test system: late watergrass; assay: Test Example 1: herbicidal activity, application before weed generation under submerged conditions (Table 16, symbol A); format: in vivo, late watergrass (Echinochloa oryzicola); details: amount of applied herbicide 320 g/ha
How it was run: as §3

[10] = test system: barnyard grass; assay: Test Example 3: herbicidal effect by foliage application, Wagner pot (Table 18, symbol H); format: in vivo, barnyard grass (Echinochloa crus-galli); details: 320 g/ha
How it was run: (§4)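 Plants were sown in alluvial soil held under 0.1–0.5 cm standing water and grown 14 days in a greenhouse at 25–30 °C. An emulsifiable formulation, water-diluted to the set dose, was then sprayed onto the foliage, and effects were scored three weeks later using previously defined criteria.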

[11] = test system: velvetleaf; assay: Test Example 5: herbicidal effect by foliage application, plastic box (Table 20, symbol M); format: in vivo, velvetleaf (Abutilon theophrasti); details: 320 g/ha; for M: velvetleaf, herbicidal effect grade: foliage application, three weeks after application; for herbicidal effect on M: velvetleaf (evaluation grade 0-5): foliage application after 14-day growth, evaluated three weeks after application
How it was run: as §1

[12] = test system: persian speedwell; assay: Test Example 5: herbicidal effect by foliage application, plastic box (Table 20, symbol R); format: in vivo, Persian speedwell (Veronica persica); details: 320 g/ha; for R: persian speedwell, herbicidal effect grade: foliage application, three weeks after application; for herbicidal effect on R: persian speedwell (evaluation grade 0-5): foliage application after 14-day growth, evaluated three weeks after application
How it was run: as §1

[13] = test system: lambsquarters; assay: Test Example 5: herbicidal effect by foliage application, plastic box (Table 20, symbol O); format: in vivo, lambsquarters (Chenopodium album); details: 320 g/ha; for O: lambsquarters, herbicidal effect grade: foliage application, three weeks after application; for herbicidal effect on O: lambsquarters (evaluation grade 0-5): foliage application after 14-day growth, evaluated three weeks after application
How it was run: as §1

[14] = test system: green foxtail; assay: Test Example 5: herbicidal effect by foliage application, plastic box (Table 20, symbol G); format: in vivo, green foxtail (Setaria viridis); details: 320 g/ha; for G: green foxtail, herbicidal effect grade: foliage application, three weeks after application; for herbicidal effect on G: green foxtail (evaluation grade 0-5): foliage application after 14-day growth, evaluated three weeks after application
How it was run: as §1

[15] = test system: Chinese sprangletop; assay: Test Example 3: herbicidal effect by foliage application, Wagner pot (Table 18, symbol D); format: in vivo, chinese sprangletop (Leptochloa chinensis); details: 320 g/ha
How it was run: as §4

[16] = test system: windgrass; assay: Test Example 4: herbicidal effect by soil treatment (Table 19, symbol L); format: in vivo, windgrass (Apera spica-venti); details: amount of applied herbicide 320 g/ha
How it was run: as §2

Compound | L: windgrass, herbicidal effect grade [1] | R: persian speedwell, herbicidal effect grade [2] | H: barnyard grass, herbicidal effect grade [3] | K: Italian ryegrass, herbicidal effect grade [4] | F: southern crabgrass, herbicidal effect grade [5] | Herbicidal effect, C: oval-leafed pondweed [6] | K: Italian ryegrass, herbicidal effect grade [7] | O: lambsquarters, herbicidal effect grade [8] | Herbicidal effect, A: late watergrass [9] | herbicidal effect on barnyard grass (H) [10] | M: velvetleaf, herbicidal effect grade [11] | R: persian speedwell, herbicidal effect grade [12] | O: lambsquarters, herbicidal effect grade [13] | G: green foxtail, herbicidal effect grade [14] | herbicidal effect on Chinese sprangletop (D) [15] | Herbicidal effect by soil treatment, H: barnyard grass [3] | Herbicidal effect by soil treatment, K: Italian ryegrass [7] | Herbicidal effect by soil treatment, O: lambsquarters [8] | Herbicidal effect by soil treatment, L: windgrass [16] | Herbicidal effect by soil treatment, R: persian speedwell [2] | further results
COc1cc(F)ccc1-c1sc2cc(Cl)ccc2c1-c1c(O)c(C)nn(C)c1=O [3-043] | 5 (Herbicidal rate of 90% or more (almost completely withered)) | 3 (Herbicidal rate of 40% or more and less than 70%) | 4 (Herbicidal rate of 70% or more and less than 90%) | 2 (Herbicidal rate of 20% or more and less than 40%) | 0 (Herbicidal rate of 5% or less (almost no effect)) | 2 (Herbicidal rate of 20% or more and less than 40%) | 1 (Herbicidal rate of 5% or more and less than 20%) | 5 (Herbicidal rate of 90% or more (almost completely withered)) | 0 (Herbicidal rate of 5% or less (almost no effect)) | 5 (Herbicidal rate of 90% or more (almost completely withered)) | 5 (Herbicidal rate of 90% or more (almost completely withered)) | 5 (Herbicidal rate of 90% or more (almost completely withered)) | 4 (Herbicidal rate of 70% or more and less than 90%) | 5 (Herbicidal rate of 90% or more (almost completely withered)) | 3 (Herbicidal rate of 40% or more and less than 70%) | – | – | – | – | – | –
CCCOc1ccc2c(-c3c(O)c(C)nn(C)c3=O)c(-c3ccccc3OC)sc2c1 [3-099] | 5 (Herbicidal rate of 90% or more (almost completely withered)) | 4 (Herbicidal rate of 70% or more and less than 90%) | 4 (Herbicidal rate of 70% or more and less than 90%) | 5 (Herbicidal rate of 90% or more (almost completely withered)) | 5 (Herbicidal rate of 90% or more (almost completely withered)) | 5 (Herbicidal rate of 90% or more (almost completely withered)) | 5 (Herbicidal rate of 90% or more (almost completely withered)) | 5 (Herbicidal rate of 90% or more (almost completely withered)) | 5 (Herbicidal rate of 90% or more (almost completely withered)) | 5 (Herbicidal rate of 90% or more (almost completely withered)) | 5 (Herbicidal rate of 90% or more (almost completely withered)) | 5 (Herbicidal rate of 90% or more (almost completely withered)) | 5 (Herbicidal rate of 90% or more (almost completely withered)) | 5 (Herbicidal rate of 90% or more (almost completely withered)) | 5 (Herbicidal rate of 90% or more (almost completely withered)) | – | – | – | – | – | –
COc1ccccc1-c1sc2cc(OCC3CCCO3)ccc2c1-c1c(O)c(C)nn(C)c1=O (stereo not drawn) [3-133] | 5 (Herbicidal rate of 90% or more (almost completely withered)) | – | – | 5 (Herbicidal rate of 90% or more (almost completely withered)) | 4 (Herbicidal rate of 70% or more and less than 90%) | 4 (Herbicidal rate of 70% or more and less than 90%) | – | – | 3 (Herbicidal rate of 40% or more and less than 70%) | 3 (Herbicidal rate of 40% or more and less than 70%) | 3 (Herbicidal rate of 40% or more and less than 70%) | 5 (Herbicidal rate of 90% or more (almost completely withered)) | 5 (Herbicidal rate of 90% or more (almost completely withered)) | 5 (Herbicidal rate of 90% or more (almost completely withered)) | 3 (Herbicidal rate of 40% or more and less than 70%) | 1 (Herbicidal rate of 5% or more and less than 20%) | 5 (Herbicidal rate of 90% or more (almost completely withered)) | 5 (Herbicidal rate of 90% or more (almost completely withered)) | 5 (Herbicidal rate of 90% or more (almost completely withered)) | – | –
C=C(C)C(=O)Oc1c(C)nn(C)c(=O)c1-c1c(-c2ccccc2OC)sc2cc(OC)ccc12 [3-155] | – | – | – | – | – | 5 (Herbicidal rate of 90% or more (almost completely withered)) | – | – | 5 (Herbicidal rate of 90% or more (almost completely withered)) | 5 (Herbicidal rate of 90% or more (almost completely withered)) | – | – | – | – | 4 (Herbicidal rate of 70% or more and less than 90%) | 2 (Herbicidal rate of 20% or more and less than 40%) | 3 (Herbicidal rate of 40% or more and less than 70%) | 0 (Herbicidal rate of 5% or less (almost no effect)) | 4 (Herbicidal rate of 70% or more and less than 90%) | 0 (Herbicidal rate of 5% or less (almost no effect)) | herbicidal effect on K: Italian ryegrass (evaluation grade 0-5) [4]: 4 (Herbicidal rate of 70% or more and less than 90%); herbicidal effect on F: southern crabgrass (evaluation grade 0-5) [5]: 5 (Herbicidal rate of 90% or more (almost completely withered)); herbicidal effect on M: velvetleaf (evaluation grade 0-5) [11]: 5 (Herbicidal rate of 90% or more (almost completely withered)); herbicidal effect on R: persian speedwell (evaluation grade 0-5) [12]: 5 (Herbicidal rate of 90% or more (almost completely withered)); herbicidal effect on O: lambsquarters (evaluation grade 0-5) [13]: 4 (Herbicidal rate of 70% or more and less than 90%); herbicidal effect on G: green foxtail (evaluation grade 0-5) [14]: 5 (Herbicidal rate of 90% or more (almost completely withered))
CCCC(=O)Oc1c(C)nn(C)c(=O)c1-c1c(-c2ccc(OC)cc2)sc2c(F)cccc12 [4-006] | – | – | – | – | – | 0 (Herbicidal rate of 5% or less (almost no effect)) | – | – | 3 (Herbicidal rate of 40% or more and less than 70%) | 5 (Herbicidal rate of 90% or more (almost completely withered)) | – | – | – | – | 5 (Herbicidal rate of 90% or more (almost completely withered)) | 4 (Herbicidal rate of 70% or more and less than 90%) | 0 (Herbicidal rate of 5% or less (almost no effect)) | 4 (Herbicidal rate of 70% or more and less than 90%) | 0 (Herbicidal rate of 5% or less (almost no effect)) | 0 (Herbicidal rate of 5% or less (almost no effect)) | herbicidal effect on K: Italian ryegrass (evaluation grade 0-5) [4]: 4 (Herbicidal rate of 70% or more and less than 90%); herbicidal effect on F: southern crabgrass (evaluation grade 0-5) [5]: 1 (Herbicidal rate of 5% or more and less than 20%); herbicidal effect on M: velvetleaf (evaluation grade 0-5) [11]: 5 (Herbicidal rate of 90% or more (almost completely withered)); herbicidal effect on R: persian speedwell (evaluation grade 0-5) [12]: 3 (Herbicidal rate of 40% or more and less than 70%); herbicidal effect on O: lambsquarters (evaluation grade 0-5) [13]: 3 (Herbicidal rate of 40% or more and less than 70%); herbicidal effect on G: green foxtail (evaluation grade 0-5) [14]: 4 (Herbicidal rate of 70% or more and less than 90%)
